Measured values: patent US6525017B1, “Using glutathiane to protect neurons from injury” (The Children's Medical Center Corporation, priority 1989, dated 2003)

Tests used:
retinal ganglion cells = test: Survival of retinal ganglion cells exposed to glutamate (NMDA neurotoxicity); format: cell-based, rat
Description: To investigate the influence of redox modulation on NMDA neurotoxicity, survival of an identified central neuron, the retinal ganglion cell, was monitored for 12-24 hr after a brief (5-10 min.) exposure to DTT. To determine the degree of killing specifically related to activation of the NMDA receptor, APV at 200 μM was added to sibling cultures. APV-preventable, glutamate-induced death was increased 70±9% with DTT treatment.
Retinal ganglion cell neurons were labeled in situ, dissociated from the retina, and cultured as follows. Retinal ganglion cells from 7- to 12-day-old Long-Evans rats were labeled and enzymatically dissociated as described by Leifer et al., Science 224: 303, 1984. Following rinse of the dissociated retinal cells with a physiological saline based on Hanks' salts (composition in mM: NaCl, 137; NaHCO3, 1; Na2HPO4, 0.34; KCl, 5,36; KH2PO4, 0.44; CaCl2, 1.25, MgSO4, 0.5; MgCl2, 0.5; N-2-hydroxyethyl-piperazine-N′-2-ethanesulfonic acid (HEPES), 5; dextrose, 22.2; Phenol Red, 0.001% v/v; adjusted to pH 7.2 with 0.3 M NaOH), the cells were mechanically dispersed and aliquoted to treatment vials. These vials contained control saline solution, or saline solution with either 0.5-2 mM DTT, or 0.5 mM DTT in the presence of 1 mM DTNB. Treatment groups with DTNB were readjusted to pH 7.2 with 0.3 M NaOH. Cells were agitated gently over a 5-10 min period. After treatment, 100 μl volumes of the cell suspension were plated onto glass coverslips coated with poly-L-lysine in 35×10 mm tissue-culture dishes containing 2 ml of culture medium. The cell culture medium was based on Eagle's minimum essential medium (MEM), modified so that it was nominally free of magnesium and contained 10 mM CaCl2 to enhance NMDA receptor-mediated neuro-toxicity. The medium was also supplemented with methylcellulose 0.7% w/v, gentamicin 1 μg/ml, dextrose 16 mM, and rat serum 5% v/v. Glutamate levels in the culture medium were monitored by HPLC analysis. Concentrations of glutamate added to the medium of each experiment to induce cell killing averaged 10 μM (day to day variability in neuronal cell death was most probably due to slight variations in the amount of endogenous glutamate or a glutamate-like substance in these cultures). The 100 μl aliquots of cell suspension diluted into the 2 ml of MEM produced a final concentration of 50 μM Mg^2+, as well as levels of DTT and DTNB at 5% of their initial treatment concentrations. The cell cultures were incubated for 12-24 hours at 37° C. in an atmosphere of 5% CO2/95% humidified air. Neuronal survival was then scored by counting retinal ganglion cells displaying uptake and cleavage of fluorescein diacetate to fluorescein, as described by Hahn et al. Proc. Nat. Acad. Sci. USA 85:6556, 1988.
Experiments were conducted in triplicate and repeated on eleven separate days. In order to compare results obtained on different days, data were normalized such that the total number of surviving neurons in a given experiment divided by the number of treatment categories (i.e., 4) equalled 100.
Retinal cells were cultured as described in Example 1. In these experiments transient exposure to the reduced form of DTT (500 μM) occurred in the presence of DTNB (1 mM).

nicotinic receptor = test: Nicotinic receptor function in intact chick retina; format: cell-based
Description: Eyecups were obtained from 2-to 5-day-old chicks and continuously superfused at 20-25° C. at a rate of 8 ml/min with Tyrodes solution (130 mM NaCl, 3 mM KCl, 17 mM dextrose, 20 mM NaHCO3, 0.01% w/v phenol red; bubbled with a gas mixture of 95% O2 and 5% CO2) containing 5 mM MgCl2 to reduce synaptic activity. […] Traces were triggered by the opening of two solenoid valves that shunted approximately 200 μl of agonist (1, 1-dimethyl-4-phenyl-piperazinium iodide, DMPP or NMDA) into the perfusion line, Agonists reached the preparation approximately 7s later. The resulting responses originated, at least in part, in the retinal ganglion cells. Some experiments were performed in the presence of 10 μg/ml catalase and 1 μg/ml superoxide dismutase. Antagonists, reducing agents, or oxidizing agents were introduced directly via the perfusate.
The action of DTT lasted for tens of minutes after the reducing agent was removed; any small decrement in the potentiation could be reversed with additional DTT treatment. The function of the nicotinic receptors was restored upon oxidation with 0.1-1.0 mM DTNB (applied for 5 min). […] The reduction and oxidation effects could be alternated repeatedly for as long as the preparation remained stable, which was often more than 9 hr.

non-NMDA receptors = test: Whole-cell currents elicited by non-NMDA agonists in rat retinal ganglion cells; format: cell-based; details: 125 μM kainate, 60 μM AMPA, 30 μM quisqualate
Description: The third central neuronal preparation in which the effects of oxidation and reduction on NMDA responses were tested was the isolated rat retinal ganglion cell. Postnatal retinal ganglion cells were identified and cultured as described in Lipton et al., supra. Physiological solutions and experimental protocol were the same as described for cortical neurons (Example 2), except that TTX was excluded from the extracellular fluid, since whole-cell recordings were performed on neurons that were solitary and had no apparent connections to other cells and no spontaneous action potentials.
In the retinal ganglion cells, we further tested the effects of DTT and DTNB on responses elicited by glutamate analogs acting at non-NMDA receptors to confirm our previous observations in the chick retina, i.e., a lack of effect of reduction and oxidation on responses induced by agonists acting at non-NMDA receptors.

Structure (SMILES)	DTT-enhanced glutamate-induced death with concomitant DTNB (retinal ganglion cells; 0.5 mM DTT in the presence of 1 mM DTNB)	nicotinic receptor function upon oxidation (nicotinic receptor; 0.1-1.0 mM DTNB applied for 5 min, after DTT)	responses elicited by kainate, AMPA or quisqualate after oxidation (non-NMDA receptors; 200 μM DTNB)	death of retinal ganglion cells exposed to glutamate in the culture medium (retinal ganglion cells; APV 200 μM, DTT transient exposure, 12-24 hr)	increase of APV-preventable, glutamate-induced death (retinal ganglion cells; brief (5-10 min) exposure to DTT, survival monitored 12-24 hr) [%]	nicotinic receptor function after reduction (nicotinic receptor; DTT 1-2 mM applied for 10-25 min)	currents elicited by kainate, AMPA or quisqualate after reduction (non-NMDA receptors; 1 mM DTT)
O=C(O)c1cc(SSc2ccc([N+](=O)[O-])c(C(=O)O)c2)ccc1[N+](=O)[O-] [DTNB, 5′-5′-dithiobis-2-nitrobenzoic acid]	totally blocked	restored	did not affect				
O[C@@H](CS)[C@@H](O)CS [DTT, dithothreitol]				substantially increased death	70±9	blocks nicotinic receptor function	no substantial effect
